Data reported in publication PMC9240354, “Pharmacokinetics, Pharmacodynamics and Antiviral Efficacy of the MEK Inhibitor Zapnometinib in Animal Models and in Humans” (Frontiers in Pharmacology, 2022).

Tests used:
tolerability in mice = format: in vivo; settings: influenza virus infected mice, 25 mg/kg BID p.o.
Experimental: Zapnometinib [2-(2-Chloro-4-Iodophenylamino)-N-3,4-Difluoro benzoic acid] (M = 409.56 g/mol) was synthesized at ChemCon GmbH (Freiburg, Germany). The doses used in this study were chosen based on previously unpublished preclinical data. […] The toxicity of zapnometinib was evaluated in single- and repeat-dose p. o. studies of up to 1-month duration in rats and dogs. The genetic toxicity of zapnometinib was investigated in compliance with ICH S2; a standard battery of genotoxicity studies was performed, comprising an Ames test, an in vitro chromosome aberration test in human lymphocytes and an in vivo micronucleus assay in rats. Thus, the doses used in this manuscript were safe (Koch-Heier et al., manuscript in preparation). For treatment of mice, 10.5 mg zapnometinib were dissolved in 5% (v/v) dimethyl sulfoxide (DMSO) (Carl Roth GmbH, Karlsruhe, Germany) and further diluted with 15% (v/v) Cremophor EL (Merck KGaA, Darmstadt, Germany), and 80% (v/v) phosphate-buffered saline (PBS) (Gibco, Carlsbad, CA, California, United States). Each mouse received a dose of 25 mg/kg zapnometinib in an application volume of 200 µL of the formulation by oral gavage. The first treatment was given on day 0 (1 h prior to influenza virus infection) and the second treatment 7 h post infection. […]

in vivo = settings: beagle, dog, po, 30 mg/kg
plasma binding = settings: stated in discussion, no data shown
MEK1/2 = experiment: phosphorylation of MEK and ERK in PMA-stimulated human PBMCs (Wes); settings: 50 µg/ml 1 h, then 400 nM PMA 30 min
Experimental: PBMCs from healthy donors were isolated, treated with zapnometinib, stimulated with Phorbol-12-Mystrat-13-Acetat (PMA) and analyzed for the reduction of MEK and ERK phosphorylation.
PBMCs of 30 ml human blood were isolated using SepMate^TM tubes (Stemcell Technologies, Vancouver, Canada) by density gradient centrifugation according to manufacturer’s instructions. The PBMCs were then cultured in the plasma and treated with 50 µg/ml zapnometinib or DMSO for 1 h at 37°C and 5% CO2. Afterwards, the PBMCs were stimulated with 400 nM PMA (Sigma-Aldrich, St. Louis, Missouri, USA) for 30 minutes at 37°C and 5% CO2. After stimulation, the cells were washed twice with PBS and centrifuged 8 minutes at 300 x g at RT. The cells were then lysed in 1x RIPA buffer and analyzed with Wes™ for phosphorylation of ERK and MEK using specific antibodies as described in the Pharmacodynamic assessment to determine level of MEK inhibition section. […]
PBMCs of healthy human volunteers were treated for 1 h with 50 µg/ml zapnometinib or DMSO as solvent control and subsequently stimulated for 30 minutes with 400 nM PMA. Cell lysates of the PBMCs were then analyzed with Wes™ for phosphorylated and total protein, and the ratio was used to calculate the phosphorylation levels. […]

For `O=C(O)c1ccc(F)c(F)c1Nc1ccc(I)cc1Cl` [zapnometinib, 2-(2-Chloro-4-Iodophenylamino)-N-3,4-Difluoro benzoic acid], the tolerability (tolerability in mice) was “well tolerated and not toxic”, the half-life (in vivo) was 4 to 5 h and the plasma binding (plasma binding) was “high plasma binding”. The “phosphorylation of MEK” value (MEK1/2) was “directly prevents the phosphorylation of MEK”.
